pIC50: −log10 of the molar value.
Biological target: human recombinant LRRK2 protein (Homo sapiens (Human), UniProt Q5S007)
Assay: LRRK2 Kinase Activity Assay (ADP-Glo)
Type: biochemical
Details: LRRK2 wt; LRRKtide peptide and ATP substrates; 1h-incubation at 37° C.
Summary of the method: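 Recombinant human LRRK2 acted on LRRKtide peptide and ATP for 1 h at 37 °C. ADP formed was detected by ADP-Glo luminescence (ATP depletion, then ADP-to-ATP conversion and luciferase). IC50s came from curve fits over 10 concentrations (N=2).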

human recombinant LRRK2 protein, sequence (Q5S007 whole entry): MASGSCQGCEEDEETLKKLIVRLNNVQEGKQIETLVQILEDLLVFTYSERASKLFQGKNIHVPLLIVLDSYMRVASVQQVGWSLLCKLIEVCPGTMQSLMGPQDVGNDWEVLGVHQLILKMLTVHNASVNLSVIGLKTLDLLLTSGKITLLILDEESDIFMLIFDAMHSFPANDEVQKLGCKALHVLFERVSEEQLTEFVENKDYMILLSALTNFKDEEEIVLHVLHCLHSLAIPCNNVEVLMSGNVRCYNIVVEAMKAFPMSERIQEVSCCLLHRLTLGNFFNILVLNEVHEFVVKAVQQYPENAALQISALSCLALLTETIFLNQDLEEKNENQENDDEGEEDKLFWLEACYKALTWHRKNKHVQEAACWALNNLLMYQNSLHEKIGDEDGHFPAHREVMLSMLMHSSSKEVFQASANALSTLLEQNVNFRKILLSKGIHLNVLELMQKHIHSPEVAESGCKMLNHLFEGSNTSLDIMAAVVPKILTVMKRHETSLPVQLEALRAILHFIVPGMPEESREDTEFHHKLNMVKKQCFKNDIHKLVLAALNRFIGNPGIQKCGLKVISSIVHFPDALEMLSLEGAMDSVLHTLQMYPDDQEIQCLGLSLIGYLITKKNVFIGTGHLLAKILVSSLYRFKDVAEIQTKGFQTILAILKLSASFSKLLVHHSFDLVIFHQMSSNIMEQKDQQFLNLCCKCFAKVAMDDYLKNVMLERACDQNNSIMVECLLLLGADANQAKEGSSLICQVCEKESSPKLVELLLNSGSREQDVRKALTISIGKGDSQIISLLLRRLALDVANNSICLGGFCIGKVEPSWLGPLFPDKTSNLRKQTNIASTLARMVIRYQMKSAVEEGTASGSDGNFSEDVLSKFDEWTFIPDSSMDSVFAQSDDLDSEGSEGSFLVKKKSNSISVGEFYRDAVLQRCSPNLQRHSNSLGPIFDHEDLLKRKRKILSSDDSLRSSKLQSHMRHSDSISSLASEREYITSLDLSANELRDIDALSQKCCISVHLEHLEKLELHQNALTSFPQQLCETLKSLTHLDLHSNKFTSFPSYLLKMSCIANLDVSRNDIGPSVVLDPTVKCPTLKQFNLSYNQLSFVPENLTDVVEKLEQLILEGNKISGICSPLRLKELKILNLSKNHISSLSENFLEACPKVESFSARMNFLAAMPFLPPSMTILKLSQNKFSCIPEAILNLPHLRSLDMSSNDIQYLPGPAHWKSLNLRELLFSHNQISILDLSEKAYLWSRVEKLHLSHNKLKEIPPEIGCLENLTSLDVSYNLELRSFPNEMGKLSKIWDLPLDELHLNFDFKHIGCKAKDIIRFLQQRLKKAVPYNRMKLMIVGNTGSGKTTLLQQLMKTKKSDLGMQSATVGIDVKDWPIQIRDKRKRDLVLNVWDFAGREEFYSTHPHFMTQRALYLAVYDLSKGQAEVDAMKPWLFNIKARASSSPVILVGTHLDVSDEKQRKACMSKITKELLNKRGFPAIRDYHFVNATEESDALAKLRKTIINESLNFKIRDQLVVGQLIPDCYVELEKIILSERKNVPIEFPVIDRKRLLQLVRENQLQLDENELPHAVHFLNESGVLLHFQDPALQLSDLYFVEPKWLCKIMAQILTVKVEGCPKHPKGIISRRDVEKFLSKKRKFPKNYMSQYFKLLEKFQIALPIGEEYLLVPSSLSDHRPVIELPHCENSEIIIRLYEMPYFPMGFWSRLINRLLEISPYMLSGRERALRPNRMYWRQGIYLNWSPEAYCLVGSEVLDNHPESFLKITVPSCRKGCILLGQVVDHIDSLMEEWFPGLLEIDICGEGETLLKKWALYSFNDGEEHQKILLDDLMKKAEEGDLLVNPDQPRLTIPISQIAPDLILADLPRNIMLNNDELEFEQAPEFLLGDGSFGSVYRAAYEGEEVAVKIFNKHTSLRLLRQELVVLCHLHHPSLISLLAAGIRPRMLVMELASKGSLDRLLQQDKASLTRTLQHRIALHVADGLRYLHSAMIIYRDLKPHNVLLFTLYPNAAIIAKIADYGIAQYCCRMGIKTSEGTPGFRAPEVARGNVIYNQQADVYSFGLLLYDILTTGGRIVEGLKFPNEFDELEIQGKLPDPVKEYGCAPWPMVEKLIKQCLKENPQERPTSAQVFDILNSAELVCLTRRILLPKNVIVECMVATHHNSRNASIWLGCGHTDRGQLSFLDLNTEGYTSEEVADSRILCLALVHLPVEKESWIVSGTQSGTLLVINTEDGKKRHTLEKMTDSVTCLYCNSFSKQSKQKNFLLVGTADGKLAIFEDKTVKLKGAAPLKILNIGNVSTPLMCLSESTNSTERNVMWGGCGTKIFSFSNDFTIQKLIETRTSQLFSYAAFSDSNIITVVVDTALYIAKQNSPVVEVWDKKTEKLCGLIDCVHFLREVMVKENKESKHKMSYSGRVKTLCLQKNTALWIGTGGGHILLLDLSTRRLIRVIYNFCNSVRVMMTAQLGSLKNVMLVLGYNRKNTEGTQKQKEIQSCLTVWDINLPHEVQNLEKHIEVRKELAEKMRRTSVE

Compound | pIC50
Cc1c(F)cc2cc1C(C)OC(=O)NCCCOc1ccc3[nH]nc-2c3c1 (centres unmarked) [Example 88, 4-fluoro-5,7-dimethyl-8,14-dioxa-10,19,20-triazatetracyclo[13.5.2.1^2,6.0^18,21]tricosa-1(20),2(23),3,5,15(22),16,18(21)-heptaen-9-one] | 7.00 to 8.00
CN1CCCOc2ccc3[nH]nc(c3c2)-c2cncc(c2)COC1=O [Example 2, 10-methyl-8,14-dioxa-4,10,19,20-tetraazatetracyclo[13.5.2.1^2,6.0^18,21]tricosa-1(20),2,4,6(23),15,17,21-heptaen-9-one] | 7.00 to 8.00
C[C@@H]1CCNC(=O)OCc2nc(cn2C)-c2n[nH]c3ccc(cc23)O1 [Example 158, (12R)-4,12-dimethyl-7,13-dioxa-4,9,18,19,22-pentaazatetracyclo[12.5.2. 1^2,5.0^17,20]docosa-1(19),2,5(22),14(21),15,17(20)-hexaen-8-one] | 7.00 to 8.00
CN1CC=C(c2cc3cc(c2)-c2n[nH]c4ccc(cc24)OCCCNC(=O)OC3)CC1 [Example 39, 4-(1-methyl-1,2,3,6-tetrahydropyridin-4-yl)-8,14-dioxa-10,19,20-triazatetra cyclo[13.5.2.1^2,6.0^18,21]tricosa-1(20),2,4,6(23),15,17,21-heptaen-9-one] | > 8.00
O=C1NCCCOc2ccc3[nH]nc(c3c2)-n2cnc(c2)CCO1 [Example 126, 8,14-dioxa-2,4,10,19,20-pentaazatetracyclo[13.5.2.1^2,5.0^18,21]tricosa-1(20),3,5(23),15(22),16,18(21)-hexaen-9-one] | 7.00 to 8.00
CCC1OC(=O)NCCCOc2ccc3[nH]nc(c3c2)-c2cccc1c2 (centres unmarked) [Example 104, 7-ethyl-8,14-dioxa-10,19,20-triazatetracyclo[13.5.2.1^2,6.0^18,21]tricosa-1(20),2,4,6(23),15,17,21-heptaen-9-one] | 7.00 to 8.00
COCC1CCOc2ccc3[nH]nc(c3c2)-c2cccc(c2)COC(=O)N1 (centres unmarked) [Example 83, 11-(methoxymethyl)-8,14-dioxa-10,19,20-triazatetracyclo[13.5.2.1^2,6.0^18,21]tricosa-1(20),2(23),3,5,15(22),16,18(21)-heptaen-9-one] | > 8.00
C[C@@H]1CCNC(=O)OCCn2cc(cc2C#N)-c2n[nH]c3ccc(cc23)O1 [Example 151, (13R)-13-methyl-9-oxo-8,14-dioxa-5,10,19,20-tetraazatetracyclo[13.5.2. 1^2,5.0^18,21]tricosa-1(20),2(23),3,15(22),16,18(21)-hexaene-4-carbonitrile] | > 8.00
C[C@@H]1CCNC(=O)OCc2cc(Cl)cc(n2)-c2n[nH]c3ccc(cc23)O1 [Example 125, (13R)-4-chloro-13-methyl-8,14-dioxa-10,19,20,23-tetraazatetracyclo[13.5.2.1^2,6.0^18,21]tricosa-1(20),2(23),3,5,15(22),16,18(21)-heptaen-9-one] | > 8.00
CCC1CCOc2ccc3[nH]nc(c3c2)-c2cccc(c2)COC(=O)N1 (centres unmarked) [Example 87, 11-ethyl-8,14-dioxa-10,19,20-triazatetracyclo[13.5.2.1^2,6.0^18,21]tricosa-1(20),2(23),3,5,15(22),16,18(21)-heptaen-9-one] | > 8.00
C[C@@H]1CCNC(=O)OCCC2=NC=C(S2)c2n[nH]c3ccc(cc23)O1 [Example 160, (13R)-13-methyl-8,14-dioxa-23-thia-4,10,19,20-tetraazatetracyclo[13.5.2.1^2,5.0^18,21]tricosa-1(20),2,4,15,17,21-hexaen-9-one] | > 8.00
C#Cc1cc2cc(c1)-c1n[nH]c3ccc(cc13)OCCCNC(=O)OC2 [Example 80, 4-ethynyl-8,14-dioxa-10,19,20-triazatetracyclo[13.5.2.1^2,6.0^18,21]tricosa-1(20),2(23),3,5,15(22),16,18(21)-heptaen-9-one] | > 8.00

Continued, values first:

pIC50 | Compound
> 8.00 | O=C1NC[C@H](F)COc2ccc3[nH]nc(c3c2)-c2cnn(n2)CCO1 [Example 173, (12S)-12-fluoro-8,14-dioxa-4,5,10,19,20,23-hexaazatetracyclo[13.5.2.1^2,5.0^18,21]tricosa-1(20),2(23),3,15,17,21-hexaen-9-one]
> 8.00 | O=C1NCCC2(CC2)Oc2ccc3[nH]nc(c3c2)-c2cccc(c2)CO1 [Example 175, 8′,14′-dioxa-10′,19′,20′-triazaspiro[cyclopropane-1,13′-tetracyclo[13.5.2.1^2,6.0^18,21]tricosane]-1′(20′),2′(23′),3′,5′,15′(22′),16′,18′(21′)-heptaen-9′-one]
> 8.00 | CC1OC(=O)NCCCOc2ccc3[nH]nc(c3c2)-c2cncc1c2 (centres unmarked) [Example 107, 7-methyl-8,14-dioxa-4,10,19,20-tetraazatetracyclo[13.5.2.1^2,6.0^18,21]tricosa-1(20),2,4,6(23),15,17,21-heptaen-9-one]
> 8.00 | O=C1NCCCOc2ccc3[nH]nc(c3c2)-c2cc(cc(N3CCC(F)(F)CC3)c2)CO1 [Example 20, 4-(4,4-difluoropiperidin-1-yl)-8,14-dioxa-10,19,20-triazatetracyclo[13.5.2.1^2,6.0^18,21]tricosa-1(20),2,4,6(23),15,17,21-heptaen-9-one]
> 8.00 | CC1Cn2cc(cn2)-c2n[nH]c3ccc(cc23)OCCCNC(=O)O1 (centres unmarked) [Example 94, 7-methyl-8,14-dioxa-4,5,10,19,20-pentaazatetracyclo[13.5.2.1^2,5.0^18,21]tricosa-1(20),2(23),3,15(22),16,18(21)-hexaen-9-one]
> 8.00 | COCCC1CCN(c2cc3cc(c2)-c2n[nH]c4ccc(cc24)OCCCNC(=O)OC3)CC1 [Example 23, 4-[4-(2-methoxyethyl)piperidin-1-yl]-8,14-dioxa-10,19,20-triazatetracyclo[13.5.2.1^2,6.0^18,21]tricosa-1(20),2,4,6(23),15,17,21-heptaen-9-one]
> 8.00 | COCCN1CCN(c2cc3cc(c2)-c2n[nH]c4ccc(cc24)OCCCNC(=O)OC3)CC1 [Example 46, 4-[4-(2-methoxyethyl)piperazin-1-yl]-8,14-dioxa-10,19,20-triazatetracyclo[13.5.2.1^2,6.0^18,21]tricosa-1(20),2,4,6(23),15,17,21-heptaen-9-one]
> 8.00 | C[C@@H]1CCNC(=O)OCc2cncc(c2)-c2n[nH]c3ccc(nc23)O1 [Example 164, (13R)-13-methyl-8,14-dioxa-4,10,19,20,22-pentaazatetracyclo[13.5.2. 1^2,6.0^18,21]tricosa-1(20),2(23),3,5,15,17,21-heptaen-9-one]
> 8.00 | C[C@@H]1CCNC(=O)O[C@H](C)c2cc(F)cc(c2)-c2n[nH]c3ccc(cc23)O1 [Example 106, (7R,13R)-4-fluoro-7,13-dimethyl-8,14-dioxa-10,19,20-triazatetracyclo[13.5.2.1^2,6.0^18,21]tricosa-1(20),2,4,6(23),15,17,21-heptaen-9-one]
> 8.00 | COc1ncc2cc1COC(=O)NCC[C@@H](C)Oc1ccc3[nH]nc-2c3c1 [Example 143, (13R)-5-methoxy-13-methyl-8,14-dioxa-4,10,19,20-tetraazatetracyclo[13.5.2.1^2,6.0^18,21]tricosa-1(20),2,4,6(23),15,17,21-heptaen-9-one]
> 8.00 | C[C@@H]1CCNC(=O)O[C@H](C)c2cccc(c2)-c2n[nH]c3ccc(cc23)O1 [Example 96, (7R,13R)-7,13-dimethyl-8,14-dioxa-10,19,20-triazatetracyclo[13.5.2.1^2,6.0^18,21]tricosa-1(20),2(23),3,5,15(22),16,18(21)-heptaen-9-one]
